Measured values taken from patent US7118895B2, “Process for producing aglycon by using diglycosidase and flavor-improved food containing the aglycon and converting agent to be used in the process” (Amano Enzyme Inc., priority 2000, dated 2006).

Legend:
[1] = system: β-Glucosidase derived from A. niger; assay: Reactivity toward various isoflavone glycosides (HPLC); type: biochemical, Aspergillus niger; parameters: glucoside / aglycon: unit not given here; conditions: 55 °C, pH 4.0
Outline: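 Aglycone liberation was measured by reversed-phase HPLC (260 nm, calibration-curve quantitation) after ethanol extraction at 0, 1, 3 and 6 h. Reactions ran at 55° C, pH 4.0 (20 mM acetate), with each glycoside (from 2 mM methanol stock) and 0.75 AU/mL enzyme solution.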

Crude diglycosidase = assay: Examination of substrate concentration in the conversion into isoflavone aglycons by diglycosidase using soybean materials; type: biochemical, Penicillium multicolor IAM7153;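 further: percent of the isoflavone family total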
Outline: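 Reaction at 55° C, shaken, pH 4.0 (20 mM acetate), using crude diglycosidase from a 1.88 AU/mL enzyme solution on soy flour, soymilk, defatted soybean or soy protein concentrate at 2, 5, 10, 20 or 30% (w/v). Isoflavone aglycons quantified by HPLC of ethanol extracts at 0, 1, 3, 6 h.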

aglycon ([1]; Reaction time 0 h): 0
glucoside ([1]; Reaction time 0 h): 100
aglycon ([1]; Reaction time 1 h): 3.1
glucoside ([1]; Reaction time 1 h): 96.9
aglycon ([1]; Reaction time 3 h): 7
glucoside ([1]; Reaction time 3 h): 93
aglycon ([1]; Reaction time 6 h): 12.1
glucoside ([1]; Reaction time 6 h): 87.9
Decomposition efficiency: ratio of each glycoside/aglycon within its isoflavone family (Crude diglycosidase; concentrated soybean protein, substrate concentration 2%, heat treatment of enzyme no, reaction time 0 h): not detected
Decomposition efficiency: ratio of each glycoside/aglycon within its isoflavone family (Crude diglycosidase; concentrated soybean protein, substrate concentration 2%, heat treatment of enzyme no, reaction time 1 h): not detected
Decomposition efficiency: ratio of each glycoside/aglycon within its isoflavone family (Crude diglycosidase; concentrated soybean protein, substrate concentration 2%, heat treatment of enzyme no, reaction time 3 h): not detected
Decomposition efficiency: ratio of each glycoside/aglycon within its isoflavone family (Crude diglycosidase; concentrated soybean protein, substrate concentration 2%, heat treatment of enzyme no, reaction time 6 h): not detected
Decomposition efficiency: ratio of each glycoside/aglycon within its isoflavone family (Crude diglycosidase; concentrated soybean protein, substrate concentration 2%, heat treatment of enzyme yes, reaction time 6 h): not detected
Decomposition efficiency: ratio of each glycoside/aglycon within its isoflavone family (Crude diglycosidase; concentrated soybean protein, substrate concentration 5%, heat treatment of enzyme no, reaction time 0 h): not detected
Decomposition efficiency: ratio of each glycoside/aglycon within its isoflavone family (Crude diglycosidase; concentrated soybean protein, substrate concentration 5%, heat treatment of enzyme no, reaction time 1 h): not detected
Decomposition efficiency: ratio of each glycoside/aglycon within its isoflavone family (Crude diglycosidase; concentrated soybean protein, substrate concentration 5%, heat treatment of enzyme no, reaction time 3 h): not detected
Decomposition efficiency: ratio of each glycoside/aglycon within its isoflavone family (Crude diglycosidase; concentrated soybean protein, substrate concentration 5%, heat treatment of enzyme no, reaction time 6 h): not detected
Decomposition efficiency: ratio of each glycoside/aglycon within its isoflavone family (Crude diglycosidase; concentrated soybean protein, substrate concentration 5%, heat treatment of enzyme yes, reaction time 6 h): not detected
Decomposition efficiency: ratio of each glycoside/aglycon within its isoflavone family (Crude diglycosidase; concentrated soybean protein, substrate concentration 10%, heat treatment of enzyme no, reaction time 0 h): not detected
Decomposition efficiency: ratio of each glycoside/aglycon within its isoflavone family (Crude diglycosidase; concentrated soybean protein, substrate concentration 10%, heat treatment of enzyme no, reaction time 1 h): not detected
Decomposition efficiency: ratio of each glycoside/aglycon within its isoflavone family (Crude diglycosidase; concentrated soybean protein, substrate concentration 10%, heat treatment of enzyme no, reaction time 3 h): not detected
Decomposition efficiency: ratio of each glycoside/aglycon within its isoflavone family (Crude diglycosidase; concentrated soybean protein, substrate concentration 10%, heat treatment of enzyme no, reaction time 6 h): not detected
Decomposition efficiency: ratio of each glycoside/aglycon within its isoflavone family (Crude diglycosidase; concentrated soybean protein, substrate concentration 10%, heat treatment of enzyme yes, reaction time 6 h): not detected
Decomposition efficiency: ratio of each glycoside/aglycon within its isoflavone family (Crude diglycosidase; concentrated soybean protein, substrate concentration 20%, heat treatment of enzyme no, reaction time 0 h): not detected
Decomposition efficiency: ratio of each glycoside/aglycon within its isoflavone family (Crude diglycosidase; concentrated soybean protein, substrate concentration 20%, heat treatment of enzyme no, reaction time 1 h): not detected
Decomposition efficiency: ratio of each glycoside/aglycon within its isoflavone family (Crude diglycosidase; concentrated soybean protein, substrate concentration 20%, heat treatment of enzyme no, reaction time 3 h): not detected
Decomposition efficiency: ratio of each glycoside/aglycon within its isoflavone family (Crude diglycosidase; concentrated soybean protein, substrate concentration 20%, heat treatment of enzyme no, reaction time 6 h): not detected
Decomposition efficiency: ratio of each glycoside/aglycon within its isoflavone family (Crude diglycosidase; concentrated soybean protein, substrate concentration 20%, heat treatment of enzyme yes, reaction time 6 h): not detected
Decomposition efficiency: ratio of each glycoside/aglycon within its isoflavone family (Crude diglycosidase; concentrated soybean protein, substrate concentration 30%, heat treatment of enzyme no, reaction time 0 h): not detected
Decomposition efficiency: ratio of each glycoside/aglycon within its isoflavone family (Crude diglycosidase; concentrated soybean protein, substrate concentration 30%, heat treatment of enzyme no, reaction time 1 h): not detected
Decomposition efficiency: ratio of each glycoside/aglycon within its isoflavone family (Crude diglycosidase; concentrated soybean protein, substrate concentration 30%, heat treatment of enzyme no, reaction time 3 h): not detected
Decomposition efficiency: ratio of each glycoside/aglycon within its isoflavone family (Crude diglycosidase; concentrated soybean protein, substrate concentration 30%, heat treatment of enzyme no, reaction time 6 h): not detected
Decomposition efficiency: ratio of each glycoside/aglycon within its isoflavone family (Crude diglycosidase; concentrated soybean protein, substrate concentration 30%, heat treatment of enzyme yes, reaction time 6 h): not detected
Decomposition efficiency: ratio of each glycoside/aglycon within its isoflavone family (Crude diglycosidase; roasted soy flour, substrate concentration 2%, heat treatment of enzyme no, reaction time 0 h): not detected
Decomposition efficiency: ratio of each glycoside/aglycon within its isoflavone family (Crude diglycosidase; roasted soy flour, substrate concentration 2%, heat treatment of enzyme no, reaction time 1 h): not detected
Decomposition efficiency: ratio of each glycoside/aglycon within its isoflavone family (Crude diglycosidase; roasted soy flour, substrate concentration 2%, heat treatment of enzyme no, reaction time 3 h): not detected
Decomposition efficiency: ratio of each glycoside/aglycon within its isoflavone family (Crude diglycosidase; roasted soy flour, substrate concentration 2%, heat treatment of enzyme no, reaction time 6 h): not detected
Decomposition efficiency: ratio of each glycoside/aglycon within its isoflavone family (Crude diglycosidase; roasted soy flour, substrate concentration 2%, heat treatment of enzyme yes, reaction time 6 h): not detected
Decomposition efficiency: ratio of each glycoside/aglycon within its isoflavone family (Crude diglycosidase; roasted soy flour, substrate concentration 5%, heat treatment of enzyme no, reaction time 0 h): not detected
Decomposition efficiency: ratio of each glycoside/aglycon within its isoflavone family (Crude diglycosidase; roasted soy flour, substrate concentration 5%, heat treatment of enzyme no, reaction time 1 h): not detected
Decomposition efficiency: ratio of each glycoside/aglycon within its isoflavone family (Crude diglycosidase; roasted soy flour, substrate concentration 5%, heat treatment of enzyme no, reaction time 3 h): not detected
Decomposition efficiency: ratio of each glycoside/aglycon within its isoflavone family (Crude diglycosidase; roasted soy flour, substrate concentration 5%, heat treatment of enzyme no, reaction time 6 h): not detected
Decomposition efficiency: ratio of each glycoside/aglycon within its isoflavone family (Crude diglycosidase; roasted soy flour, substrate concentration 5%, heat treatment of enzyme yes, reaction time 6 h): not detected
Decomposition efficiency: ratio of each glycoside/aglycon within its isoflavone family (Crude diglycosidase; roasted soy flour, substrate concentration 10%, heat treatment of enzyme no, reaction time 0 h): not detected
Decomposition efficiency: ratio of each glycoside/aglycon within its isoflavone family (Crude diglycosidase; roasted soy flour, substrate concentration 10%, heat treatment of enzyme no, reaction time 1 h): not detected
Decomposition efficiency: ratio of each glycoside/aglycon within its isoflavone family (Crude diglycosidase; roasted soy flour, substrate concentration 10%, heat treatment of enzyme no, reaction time 3 h): not detected
Decomposition efficiency: ratio of each glycoside/aglycon within its isoflavone family (Crude diglycosidase; roasted soy flour, substrate concentration 10%, heat treatment of enzyme no, reaction time 6 h): not detected
Decomposition efficiency: ratio of each glycoside/aglycon within its isoflavone family (Crude diglycosidase; roasted soy flour, substrate concentration 10%, heat treatment of enzyme yes, reaction time 6 h): not detected
Decomposition efficiency: ratio of each glycoside/aglycon within its isoflavone family (Crude diglycosidase; roasted soy flour, substrate concentration 20%, heat treatment of enzyme no, reaction time 0 h): not detected
Compound: O=C(O)CC(=O)OC[C@H]1O[C@@H](Oc2cc(O)c3c(=O)c(-c4ccc(O)cc4)coc3c2)[C@H](O)[C@@H](O)[C@@H]1O [malonylgenistin, 6″-O-malonylgenistin]
